Experimental data from patent US20220330549A1, “USE OF N-BENZYLBENZAMIDE-BASED COMPOUND AS HERBICIDE” (Northwest A&F University, priority 2020, published 2022).

Key:
Assay type in all cases: in vivo
[1] = tested on: Piemarker; experiment: Herbicidal activity test for indoor pre-emergence soil treatment; design: key: level 1-9; higher = more weed remaining vs blank control; conditions: 150 g a.i./ha, visual inspection 21 days after treatment
Summary of the method: (§1)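 Compounds were formulated as 10% emulsifiable concentrates and sprayed onto the soil 24 h after sowing, at 150 g(a.i.)/ha. Soil was sandy loam (≤2% organic matter), with seeds under 0.5–2.0 cm cover, per NY/T 1155.3-2006. Visual 1–9 ratings relative to blank control were made after 21 days.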

[2] = tested on: green bristlegrass; experiment: as above; design: key: level 1-9; higher = more weed remaining vs blank control; conditions: 150 g a.i./ha, visual inspection 21 days after treatment
Summary of the method: as §1

[3] = tested on: Barnyard grass; experiment: as above; design: key: level 1-9; higher = more weed remaining vs blank control; conditions: 150 g a.i./ha, visual inspection 21 days after treatment
Summary of the method: as §1

[4] = tested on: Digitaria sanguinalis; experiment: as above; design: key: 1-9 levels; higher = more weed remaining vs blank control; conditions: 150 g a.i./ha, visual inspection 21 days after treatment
Summary of the method: as §1

[5] = tested on: Amaranthus retroflexus; experiment: as above; design: key: 1-9 levels; higher = more weed remaining vs blank control; conditions: 150 g a.i./ha, visual inspection 21 days after treatment
Summary of the method: as §1

[6] = tested on: Broadleaf weed; experiment: Post-emergence herbicidal activity test in a paddy field; design: key: level scale; higher level = more weed left vs blank control; conditions: 150 g a.i./ha (penoxsulam control 250 g(a.i.)/h)
Summary of the method: (§2)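 Efficacy was visually estimated 15 and 30 days after spraying, grading weed coverage relative to an untreated neighbouring plot (level 2 = 0 to 2.5%, level 9 = 67.6 to 100%). Treatments were 150 g(a.i.)/ha from 10% emulsifiable concentrates applied at the 4-5 leaf rice stage, four repeats of 50 m^2 each.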

[7] = tested on: Gramineae; experiment: as above; design: key: level scale; higher level = more weed left vs blank control; conditions: 150 g a.i./ha (penoxsulam control 250 g(a.i.)/h)
Summary of the method: as §2

[8] = tested on: Cyperaceae; experiment: as above; design: key: level scale; higher level = more weed left vs blank control; conditions: 150 g a.i./ha (penoxsulam control 250 g(a.i.)/h)
Summary of the method: as §2

[9] = tested on: Humulus scandens; experiment: Herbicidal activity test for indoor pre-emergence soil treatment; conditions: 150 g a.i./ha, visual inspection 21 days after treatment
Summary of the method: as §1

[10] = tested on: Piemarker; experiment: Herbicidal activity test for indoor post-emergence spraying on stems and leaves; design: key: grade level by weed remaining vs blank control, e.g. 5 = 10.1-15%; conditions: 150 g a.i./ha, visual inspection 21 days after treatment
Summary of the method: (§3)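 Weeds were grown in a greenhouse from seed and treated by foliar spraying after emergence, per the NY/T 1155.4-2006 method. Visual grading at 21 days: each level reflects the share of weed remaining versus the untreated blank control area.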

[11] = tested on: green bristlegrass; experiment: as above; design: key: grade level by weed remaining vs blank control, e.g. 5 = 10.1-15%; conditions: 150 g a.i./ha, visual inspection 21 days after treatment
Summary of the method: as §3

[12] = tested on: Humulus scandens; experiment: as above; design: key: grade level by weed remaining vs blank control, e.g. 5 = 10.1-15%; conditions: 150 g a.i./ha, visual inspection 21 days after treatment
Summary of the method: as §3

[13] = tested on: Digitaria sanguinalis; experiment: as above; design: key: grade level by weed remaining vs blank control, e.g. 5 = 10.1-15%; conditions: 150 g a.i./ha, visual inspection 21 days after treatment
Summary of the method: as §3

[14] = tested on: Barnyard grass; experiment: as above; design: key: grade level by weed remaining vs blank control, e.g. 5 = 10.1-15%; conditions: 150 g a.i./ha, visual inspection 21 days after treatment
Summary of the method: as §3

[15] = tested on: Amaranthus retroflexus; experiment: as above; design: key: grade level by weed remaining vs blank control, e.g. 5 = 10.1-15%; conditions: 150 g a.i./ha, visual inspection 21 days after treatment
Summary of the method: as §3

[16] = tested on: Chenopodium album; experiment: Field test for weed control in a corn field; conditions: 150 g a.i./ha, after treatment
Summary of the method: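 Field weed-control testing in corn, run per GB/T 17980.42-2000, scored Chenopodium album on a 1-9 level scale, where each level matches a percentage range of weed remaining relative to the blank control area. Sprays of 10% emulsifiable concentrates in water delivered 150 g(a.i.)/ha at the corn 2-leaf to 5-leaf stage on 20 m^2 plots, four replicates each. Mesotrione 25% oil dispersion served as reference.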

[17] = tested on: nutgrass flatsedge; experiment: Field test for weed control in a corn field; conditions: 150 g a.i./ha, after treatment
Summary of the method: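 Herbicidal effect on nutgrass flatsedge was measured in a field planted with corn, using the GB/T 17980.42-2000 method. Emulsifiable concentrates (10%) in water were sprayed at 150 g(a.i.)/ha during the 2-leaf to 5-leaf corn stage, on 20 m^2 plots repeated 4 times. 25% mesotrione oil dispersion was the control agent. Activity was scored from 1 to 9 by weed remaining relative to blank control plots.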

[18] = tested on: goosegrass; experiment: Field test for weed control in a corn field; conditions: 150 g a.i./ha, after treatment
Summary of the method: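 In this field trial in corn, run per GB/T 17980.42-2000, test agents prepared as 10% emulsifiable concentrates were applied in water as sprays at 150 g(a.i.)/ha at the 2- to 5-leaf corn stage. Each treatment covered 20 m^2 and was repeated 4 times. Goosegrass control was scored 1-9 relative to weed remaining in blank control areas.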

[19] = tested on: green bristlegrass; experiment: Field test for weed control in a corn field; conditions: 150 g a.i./ha, after treatment
Summary of the method: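 Herbicidal activity against green bristlegrass was assessed in corn field plots of 20 m^2 per GB/T 17980.42-2000. Test agents, formulated as 10% emulsifiable concentrates, were applied in water at 150 g(a.i.)/ha at the corn 2 leaves to 5 leaves stage, repeated 4 times. A 25% mesotrione oil dispersion served as the control agent, and weed damage was rated on levels 1-9.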

[20] = tested on: Convolvulus arvensis; experiment: Field test for weed control in a corn field; conditions: 150 g a.i./ha, after treatment
Summary of the method: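 Post-emergence herbicidal activity on Convolvulus arvensis was scored in a corn field on a 1-9 scale, based on symptoms and damage severity. Each level corresponds to the weed remaining as a percentage of the blank control area. Sprays of 10% emulsifiable concentrate at 150 g(a.i.)/ha went on at the corn 2–5 leaf stage, with four replicates of 20 m^2 per treatment.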

[21] = tested on: Acalypha australis; experiment: Field test for weed control in a corn field; conditions: 150 g a.i./ha, after treatment
Summary of the method: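 Herbicidal activity against weeds was assessed in corn plots by the GB/T 17980.42-2000 method. Corn at the 2–5 leaf stage received water sprays of 10% emulsifiable concentrates at 150 g(a.i.)/ha, four repeats per treatment over 20 m^2. A 25% mesotrione oil dispersion was the reference. Damage symptoms and severity were rated on levels 1-9 relative to weeds in the blank control area.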

[22] = tested on: Digitaria sanguinalis; experiment: Field test for weed control in a corn field; conditions: 150 g a.i./ha, after treatment
Summary of the method: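 Field trial in a corn field following GB/T 17980.42-2000. Test compounds were formulated as 10% emulsifiable concentrates, diluted in water and sprayed post-emergence at 150 g(a.i.)/ha when corn had 2 to 5 leaves, with 4 replicates on 20 m^2 plots. Control of Digitaria sanguinalis was scored on a 1-9 scale based on weed damage relative to the untreated blank area.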

[23] = tested on: Solanum nigrum; experiment: Field test for weed control in a corn field; conditions: 150 g a.i./ha, 30 days after treatment
Summary of the method: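 In a corn field trial based on GB/T 17980.42-2000, 10% emulsifiable concentrates diluted in water were sprayed at 150 g(a.i.)/ha at the 2 to 5 leaf stage of corn. Each treatment used 20 m^2 plots and was repeated 4 times, with 25% mesotrione oil dispersion as the reference agent. Solanum nigrum damage was scored on a 1-9 scale against blank control plots.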

[24] = tested on: Portulaca oleracea; experiment: Field test for weed control in a corn field; conditions: 150 g a.i./ha, after treatment
Summary of the method: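 Post-emergence weed control was evaluated in a corn field by the GB/T 17980.42-2000 method. Emulsifiable concentrates (10%) in water were applied as sprays at 150 g(a.i.)/ha at the 2-5 leaf corn stage, in four replicate 20 m^2 plots. A 25% mesotrione oil dispersion served as control agent. Effects were graded 1-9 relative to weed remaining in blank control areas.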

[25] = tested on: Barnyard grass; experiment: Field test for weed control in a corn field; conditions: 150 g a.i./ha, 30 days after treatment
Summary of the method: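 Herbicidal activity against barnyard grass was assessed in corn field plots of 20 m^2, with four replicates per treatment. Compounds were applied as water-diluted 10% emulsifiable concentrates at 150 g(a.i.)/ha at the 2-5 leaf corn stage, with 25% mesotrione oil dispersion as the reference agent. Damage was scored on a 1-9 scale against untreated blank plots.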

[26] = tested on: Amaranthus retroflexus; experiment: Field test for weed control in a corn field; conditions: 150 g a.i./ha, 30 days after treatment
Summary of the method: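 Post-emergence control of Amaranthus retroflexus was assessed in corn plots using the GB/T 17980.42-2000 method. Emulsifiable concentrates (10%) in water were applied by spraying at the 2- to 5-leaf crop stage on 20 m^2 plots, four replicates each, alongside a mesotrione 25% oil dispersion reference. Herbicidal activity was scored on 1-9 levels by weed amount relative to blank control areas.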

Structure (SMILES) | Herbicidal Activity Piemarker [1] | Herbicidal Activity Green bristlegrass [2] | Herbicidal Activity Barnyard grass [3] | Herbicidal Activity Digitaria sanguinalis [4] | Herbicidal Activity Amaranthus retroflexus [5] | Herbicidal activity 15 days after treatment Broadleaf weed [6] | Herbicidal activity 30 days after treatment Broadleaf weed [6] | Herbicidal activity 15 days after treatment Gramineae [7] | Herbicidal activity 30 days after treatment Gramineae [7] | Herbicidal activity 15 days after treatment Cyperaceae [8] | Herbicidal activity 30 days after treatment Cyperaceae [8] | Herbicidal Activity Humulus scandens [9] | Herbicidal Activity Piemarker [10] | Herbicidal Activity Green bristlegrass [11] | Herbicidal Activity Humulus scandens [12] | Herbicidal Activity Digitaria sanguinalis [13] | Herbicidal Activity Barnyard grass [14] | Herbicidal Activity Amaranthus retroflexus [15] | Post-emergence weed control effect, Chenopodium album [16] | Post-emergence weed control effect, Nutgrass flatsedge [17] | further results
COc1ccccc1C(=O)NCc1cccc(Cl)c1 [Compound A09, N-(3-chlorobenzyl)-2-methoxybenzamide] | 1 | 2 (equivalent to 0 to 2.5% of the weed in the blank control area) | 1 | 2 (equivalent to 0 to 2.5% of the weed in the blank control area) | 2 (equivalent to 0 to 2.5% of the weed in the blank control area) | 2 (equivalent to 0 to 2.5% of the weed in the blank control area) | 2 (equivalent to 0 to 2.5% of the weed in the blank control area) | 2 (equivalent to 0 to 2.5% of the weed in the blank control area) | 2 (equivalent to 0 to 2.5% of the weed in the blank control area) | 1 | 2 (equivalent to 0 to 2.5% of the weed in the blank control area) | 3 (equivalent to 2.6 to 5% of the weed in the blank control area) | 1 | 2 (equivalent to 0 to 2.5% of the weed in the blank control area) | 1 | 1 | 1 | 1 | 1 | 2 (equivalent to 0 to 2.5% of the weed in the blank control area) | Post-emergence weed control effect, Goose grass [18]: 1; Post-emergence weed control effect, Green bristlegrass [19]: 2 (equivalent to 0 to 2.5% of the weed in the blank control area); Post-emergence weed control effect, Convolvulus arvensis [20]: 2 (equivalent to 0 to 2.5% of the weed in the blank control area); Post-emergence weed control effect, Acalypha australis [21]: 2 (equivalent to 0 to 2.5% of the weed in the blank control area); Post-emergence weed control effect, Digitaria sanguinalis [22]: 2 (equivalent to 0 to 2.5% of the weed in the blank control area); Post-emergence weed control effect, Solanum nigrum [23]: 2 (equivalent to 0 to 2.5% of the weed in the blank control area); Post-emergence weed control effect, Portulaca oleracea [24]: 1; Post-emergence weed control effect, Barnyard grass [25]: 2 (equivalent to 0 to 2.5% of the weed in the blank control area); Post-emergence weed control effect, Amaranthus retroflexus [26]: 1
Cc1cccc(C(=O)NCc2cccc(F)c2)n1 [Compound B22] | 1 | 1 | 1 | 1 | 1 | 1 | 1 | 1 | 1 | 1 | 1 | 2 (equivalent to 0 to 2.5% of the weed in the blank control area) | 1 | 1 | 1 | 1 | 1 | 1 | 1 | 2 (equivalent to 0 to 2.5% of the weed in the blank control area) | Post-emergence weed control effect, Goose grass [18]: 2 (equivalent to 0 to 2.5% of the weed in the blank control area); Post-emergence weed control effect, Green bristlegrass [19]: 1; Post-emergence weed control effect, Convolvulus arvensis [20]: 1; Post-emergence weed control effect, Acalypha australis [21]: 1; Post-emergence weed control effect, Digitaria sanguinalis [22]: 2 (equivalent to 0 to 2.5% of the weed in the blank control area); Post-emergence weed control effect, Solanum nigrum [23]: 2 (equivalent to 0 to 2.5% of the weed in the blank control area); Post-emergence weed control effect, Portulaca oleracea [24]: 1; Post-emergence weed control effect, Barnyard grass [25]: 1; Post-emergence weed control effect, Amaranthus retroflexus [26]: 1
